# Experimental data reported in patent US9066861B2 (priority 2009, dated 2015).
# Assay: Assay (%) test of APIs in cream, stability study, HPLC method
# Assay type: physicochemical
# Experimental: The stability of the product is confirmed by the stability studies performed for 3/6 months as per ICH guidelines.
# APIs-stability experiments were carried out (see tables 3-20) using several products that are representative of the present invention. Tests were carried out to observe (or measure as appropriate) the physical appearance of the product, the pH value and assay of the APIs over a period of time. […] Betamethasone Valerate—0.12% (w/w) • ii. Fluticasone Propionate—0.05% (w/w) • iii. Mometasone Furoate—0.1% (w/w) • iv. Dexamethasone Acetate—0.1% (w/w) • v. Hydrocortisone Acetate—1.0% (w/w) • vi. Clobetasol Propionate—0.05% (w/w) • vii. Beclomethasone Dipropionate—0.025% (w/w) • viii. Betamethasone Dipropionate—0.05% (w/w) wherein all percentages are with respect to the final formulation.
# The product used for the Stability Studies tests contained approximately 10% extra APIs (overages).
smiles,measurement,setting,value
CCC(=O)OCC(=O)[C@@]1(OC(=O)CC)[C@@H](C)C[C@H]2[C@@H]3CCC4=CC(=O)C=C[C@]4(C)[C@@]3(Cl)[C@@H](O)C[C@@]21C [Beclomethasone dipropionate],Assay (%),"in cream Batch No. SFB-01, 25° C. 60% RH, 1st Month",108.05%
same,Assay (%),"in cream Batch No. SFB-01, 25° C. 60% RH, 2nd Month",108.00%
same,Assay (%),"in cream Batch No. SFB-01, 25° C. 60% RH, 3rd Month",107.90%
same,Assay (%),"in cream Batch No. SFB-01, 30° C. 65% RH, 1st Month",108.11%
same,Assay (%),"in cream Batch No. SFB-01, 30° C. 65% RH, 2nd Month",107.96%
same,Assay (%),"in cream Batch No. SFB-01, 30° C. 65% RH, 3rd Month",107.68%
same,Assay (%),"in cream Batch No. SFB-01, 40° C. 75% RH, 1st Month",108.04%
same,Assay (%),"in cream Batch No. SFB-01, 40° C. 75% RH, 2nd Month",107.98%
same,Assay (%),"in cream Batch No. SFB-01, 40° C. 75% RH, 3rd Month",107.88%
same,Assay (%),"in cream Batch No. SFB-01, Freezthaw, 1st Month",107.58%
same,Assay (%),"in cream Batch No. SFB-01, Initial",108.12%
same,Assay (%),"in cream Batch No. SFB-01, Temperature cycling, 1st Month",107.68%
CCCCC(=O)O[C@]1(C(=O)CO)[C@@H](C)C[C@H]2[C@@H]3CCC4=CC(=O)C=C[C@]4(C)[C@@]3(F)[C@@H](O)C[C@@]21C [Betamethasone Valerate],Assay (%),"in cream Batch No. SBV-01, 25° C. 60% RH, 1st Month",109.54%
same,Assay (%),"in cream Batch No. SBV-01, 25° C. 60% RH, 2nd Month",109.42%
same,Assay (%),"in cream Batch No. SBV-01, 25° C. 60% RH, 3rd Month",109.21%
same,Assay (%),"in cream Batch No. SBV-01, 30° C. 65% RH, 1st Month",109.48%
same,Assay (%),"in cream Batch No. SBV-01, 30° C. 65% RH, 2nd Month",109.42%
same,Assay (%),"in cream Batch No. SBV-01, 30° C. 65% RH, 3rd Month",109.20%
same,Assay (%),"in cream Batch No. SBV-01, 40° C. 75% RH, 1st Month",109.51%
same,Assay (%),"in cream Batch No. SBV-01, 40° C. 75% RH, 2nd Month",109.32%
same,Assay (%),"in cream Batch No. SBV-01, 40° C. 75% RH, 3rd Month",109.11%
same,Assay (%),"in cream Batch No. SBV-01, Freezthaw, 1st Month",108.25%
same,Assay (%),"in cream Batch No. SBV-01, Initial",109.56%
same,Assay (%),"in cream Batch No. SBV-01, Temperature cycling, 1st Month",109.51%
CCC(=O)O[C@]1(C(=O)CCl)[C@@H](C)C[C@H]2[C@@H]3CCC4=CC(=O)C=C[C@]4(C)[C@@]3(F)[C@@H](O)C[C@@]21C [Clobetasol Propionate],Assay (%),"in cream Batch No. SPC-01, 25° C. 60% RH, 1st Month",107.40%
same,Assay (%),"in cream Batch No. SPC-01, 25° C. 60% RH, 2nd Month",107.34%
same,Assay (%),"in cream Batch No. SPC-01, 25° C. 60% RH, 3rd Month",107.30%
same,Assay (%),"in cream Batch No. SPC-01, 25° C. 60% RH, 6th Month",107.24%
same,Assay (%),"in cream Batch No. SPC-01, 30° C. 65% RH, 1st Month",107.38%
same,Assay (%),"in cream Batch No. SPC-01, 30° C. 65% RH, 2nd Month",107.32%
same,Assay (%),"in cream Batch No. SPC-01, 30° C. 65% RH, 3rd Month",107.29%
same,Assay (%),"in cream Batch No. SPC-01, 30° C. 65% RH, 6th Month",107.22%
same,Assay (%),"in cream Batch No. SPC-01, 40° C. 75% RH, 1st Month",107.34%
same,Assay (%),"in cream Batch No. SPC-01, 40° C. 75% RH, 2nd Month",107.22%
same,Assay (%),"in cream Batch No. SPC-01, 40° C. 75% RH, 3rd Month",107.15%
same,Assay (%),"in cream Batch No. SPC-01, 40° C. 75% RH, 6th Month",107.10%
same,Assay (%),"in cream Batch No. SPC-01, Freezthaw, 1st Month",107.11%
same,Assay (%),"in cream Batch No. SPC-01, Initial",107.41%
same,Assay (%),"in cream Batch No. SPC-01, Temperature cycling, 1st Month",107.21%
CCC(=O)O[C@]1(C(=O)SCF)[C@H](C)C[C@H]2[C@@H]3C[C@H](F)C4=CC(=O)C=C[C@]4(C)[C@@]3(F)[C@@H](O)C[C@@]21C [Fluticasone Propionate],Assay (%),"in cream Batch No. SFC-01, 25° C. 60% RH, 1st Month",108.54%
same,Assay (%),"in cream Batch No. SFC-01, 25° C. 60% RH, 2nd Month",108.42%
same,Assay (%),"in cream Batch No. SFC-01, 25° C. 60% RH, 3rd Month",108.21%
same,Assay (%),"in cream Batch No. SFC-01, 25° C. 60% RH, 6th Month",108.10%
same,Assay (%),"in cream Batch No. SFC-01, 30° C. 65% RH, 1st Month",108.48%
same,Assay (%),"in cream Batch No. SFC-01, 30° C. 65% RH, 2nd Month",108.42%
same,Assay (%),"in cream Batch No. SFC-01, 30° C. 65% RH, 3rd Month",108.20%
same,Assay (%),"in cream Batch No. SFC-01, 30° C. 65% RH, 6th Month",108.11%
same,Assay (%),"in cream Batch No. SFC-01, 40° C. 75% RH, 1st Month",108.51%
same,Assay (%),"in cream Batch No. SFC-01, 40° C. 75% RH, 2nd Month",108.32%
same,Assay (%),"in cream Batch No. SFC-01, 40° C. 75% RH, 3rd Month",108.11%
same,Assay (%),"in cream Batch No. SFC-01, 40° C. 75% RH, 6th Month",108.08%
same,Assay (%),"in cream Batch No. SFC-01, Freezthaw, 1st Month",108.15%
same,Assay (%),"in cream Batch No. SFC-01, Initial",108.56%
same,Assay (%),"in cream Batch No. SFC-01, Temperature cycling, 1st Month",108.51%
CC(=O)OCC(=O)[C@@]1(O)CC[C@H]2[C@@H]3CCC4=CC(=O)CC[C@]4(C)[C@H]3[C@@H](O)C[C@@]21C [Hydrocortisone Acetate],Assay (%),"in cream Batch No. HAS-01, 25° C. 60% RH, 1st Month",107.14%
same,Assay (%),"in cream Batch No. HAS-01, 25° C. 60% RH, 2nd Month",107.11%
same,Assay (%),"in cream Batch No. HAS-01, 25° C. 60% RH, 3rd Month",107.10%
same,Assay (%),"in cream Batch No. HAS-01, 30° C. 65% RH, 1st Month",107.14%
same,Assay (%),"in cream Batch No. HAS-01, 30° C. 65% RH, 2nd Month",107.12%
same,Assay (%),"in cream Batch No. HAS-01, 30° C. 65% RH, 3rd Month",107.09%
same,Assay (%),"in cream Batch No. HAS-01, 40° C. 75% RH, 1st Month",107.14%
same,Assay (%),"in cream Batch No. HAS-01, 40° C. 75% RH, 2nd Month",107.12%
same,Assay (%),"in cream Batch No. HAS-01, 40° C. 75% RH, 3rd Month",107.05%
same,Assay (%),"in cream Batch No. HAS-01, Freezthaw, 1st Month",107.14%
same,Assay (%),"in cream Batch No. HAS-01, Initial",107.15%
same,Assay (%),"in cream Batch No. HAS-01, Temperature cycling, 1st Month",107.11%
C[C@@H]1C[C@H]2[C@@H]3CCC4=CC(=O)C=C[C@]4(C)[C@@]3(Cl)[C@@H](O)C[C@]2(C)[C@@]1(OC(=O)c1ccco1)C(=O)CCl [Mometasone Furoate],Assay (%),"in cream Batch No. SFM-01, 25° C. 60% RH, 1st Month",108.54%
same,Assay (%),"in cream Batch No. SFM-01, 25° C. 60% RH, 2nd Month",108.42%
same,Assay (%),"in cream Batch No. SFM-01, 25° C. 60% RH, 3rd Month",108.21%
same,Assay (%),"in cream Batch No. SFM-01, 25° C. 60% RH, 6th Month",107.82%
same,Assay (%),"in cream Batch No. SFM-01, 30° C. 65% RH, 1st Month",108.48%
same,Assay (%),"in cream Batch No. SFM-01, 30° C. 65% RH, 2nd Month",108.42%
same,Assay (%),"in cream Batch No. SFM-01, 30° C. 65% RH, 3rd Month",108.20%
same,Assay (%),"in cream Batch No. SFM-01, 30° C. 65% RH, 6th Month",107.75%
same,Assay (%),"in cream Batch No. SFM-01, 40° C. 75% RH, 1st Month",108.51%
same,Assay (%),"in cream Batch No. SFM-01, 40° C. 75% RH, 2nd Month",108.32%
same,Assay (%),"in cream Batch No. SFM-01, 40° C. 75% RH, 3rd Month",108.11%
same,Assay (%),"in cream Batch No. SFM-01, 40° C. 75% RH, 6th Month",107.88%
same,Assay (%),"in cream Batch No. SFM-01, Freezthaw, 1st Month",108.15%
same,Assay (%),"in cream Batch No. SFM-01, Initial",108.56%
same,Assay (%),"in cream Batch No. SFM-01, Temperature cycling, 1st Month",108.51%
